{"source": "patent US9414596B2", "about": "“Metalloenzyme inhibitor compounds” (Viamet Pharmaceuticals, Inc., priority 2012, dated 2016)", "data": [{"tested_on": "C. albicans", "experiment": "Minimum Inhibitory Concentration (MIC) (C. albicans), CLSI M27-A2", "format": "cell-based", "settings": "Candida albicans, 48 h, C. albicans; approximately 48 h at 35±1° C.; MIC = about 50% growth reduction, visual; read-out: Candida MIC Rating", "experimental": "(§1) A. Minimum Inhibitory Concentration (MIC) (C. albicans) Compounds of the present disclosure were assessed for their ability to inhibit the growth of common strains of fungus, C. albicans using a standardized procedure (CLSI M27-A2). Stock solutions of the test compounds and standards were prepared in DMSO at 1,600 μg/mL (C. albicans). Eleven, serial, one-half dilutions of compounds were prepared in 96-well plates in RPMI+MOPS. The assay concentration ranges were 8-0.001 μg/mL (C. albicans). Cell suspensions of C. albicans were prepared and added to each well at concentrations of approximately 3.7×10^3 colony-forming-units per milliliter (cfu/mL). All testing was in duplicate. The inoculated plates were incubated for approximately 48 h at 35±1° C. At the completion of incubation the wells of each plate were evaluated visually for the presence of fungal growth. […] For QC purposes C. krusei isolate ATCC 6258 (4.0×10^3 cfu/mL) was included in the VOR assay.", "units": {"MIC": "µg/mL"}, "values": [{"smiles": "CC(F)(c1ccc(-c2ccc(F)cc2)cn1)[C@](O)(Cn1cnnn1)c1ccc(F)cc1F", "note": "(stereo in doubt) [Example 50, 2-(2,4-Difluorophenyl)-3-fluoro-3-(5-(4-fluorophenyl)pyridin-2-yl)-1-(1H-tetrazol-1-yl)butan-2-ol]", "MIC": "1.5 to 4"}, {"smiles": "O=P(O)(O)OC(Cn1cnnn1)(c1ccc(F)cc1F)C(F)(F)c1ccc(-c2ccc(OCC(F)(F)F)cc2)cn1", "note": "(stereo not shown) [Example 58, 2-(2,4-difluorophenyl)-1,1-difluoro-3-(1H-tetrazol-1-yl)-1-(5-(4-(2,2,2-trifluoroethoxy)phenyl)pyridin-2-yl)propan-2-yl dihydrogen phosphate]", "MIC": "< 0.5"}]}, {"tested_on": "C. albicans", "experiment": "Minimum Inhibitory Concentration (MIC) (C. albicans), CLSI M27-A2", "format": "cell-based", "settings": "Candida albicans, 48 h; read-out: Candida MIC Rating", "experimental": "as §1", "units": {"MIC": "µg/mL"}, "values": [{"smiles": "OC(Cn1cnnn1)(c1ccc(F)cc1F)C(F)(F)c1ccc(-c2ccc(OCC(F)(F)C(F)(F)F)cc2)cn1", "note": "(stereo not shown) [Example 12, 2-(2,4-Difluorophenyl)-1,1-difluoro-1-(5-(4-(2,2,3,3,3-pentafluoropropoxy)phenyl)pyridin-2-yl)-3-(1H-tetrazol-1-yl)propan-2-ol]", "MIC": "< 0.5"}, {"smiles": "OC(Cc1cc[nH]n1)(c1ccc(F)cc1F)C(F)(F)c1ccc(-c2ccc(OC(F)(F)F)cc2)cn1", "note": "(stereo not shown) [Example 15, 2-(2,4-Difluorophenyl)-1,1-difluoro-3-(1H-pyrazol-3-yl)-1-(5-(4-(trifluoromethoxy)phenyl)-pyridin-2-yl)propan-2-ol]", "MIC": "< 0.5"}]}, {"tested_on": "Septoria tritici (ATCC 26517)", "experiment": "Minimum Inhibitory Concentration (MIC) (Septoria tritici), CLSI-based microdilution", "format": "cell-based", "settings": "S. tritici ATCC 26517; seven days at 22° C. in the dark; MIC = 50% reduction in growth, visual", "experimental": "(§2) B. Minimum Inhibitory Concentration (MIC) (Septoria tritici)\n(§3) Compounds of the present disclosure were assessed for their ability to inhibit the growth of a common strain of the fungal plant pathogen Septoria tritici (ATCC 26517) using a procedure based on a Clinical and Laboratory Standards Institute (CLSI) microdilution assay protocol for filamentous fungi.\n(§4) Stock solutions of the test compounds and standards were prepared in DMSO at 6400 μg/mL. Each stock solution was used to prepare a 2-fold dilution series ranging from 16 to 0.016 μg/mL (total of 11 compound concentrations) in RPMI-1640 (Roswell Park Memorial Institute) medium containing 3-(N-morpholino)propanesulfonic acid (MOPS) buffer and 2% DMSO. A 100 μL aliquot of the dilutions was added to columns 1 (16 μg/mL compound) through 11 (0.016 μg/mL compound) of a 96-well microtiter plate. This format was replicated in a second row of the microtiter plate. Thus, each microtiter plate could include 11 concentrations of four test or control compounds replicated twice. A 100 μL aliquot of RPMI-1640/MOPS/2% DMSO medium was added to column 12 (no compound control) of the microtiter plate.\n(§5) A fresh culture of S. tritici was used to prepare a solution of approximately 5×10^4 colony-forming units per milliliter (cfu/mL) in RPMI/MOPS medium without DMSO. A 100 μL aliquot of this solution was added to all 96 wells in the microtiter plate. […] The assay plates were incubated at 22° C. for seven days in the dark without shaking.", "values": [{"smiles": "CC(F)(c1ccc(-c2ccc(OC(F)(F)F)cc2)cn1)C(O)(Cn1cnnn1)c1ccc(F)cc1F", "note": "(stereo not shown) [Example 47, 2-(2,4-Difluorophenyl)-3-fluoro-1-(1H-tetrazol-1-yl)-3-(5-(4-(trifluoromethoxy)phenyl)-pyridin-2-yl)butan-2-ol]", "Septoria MIC Rating": "B (>0.5-1.5)"}]}, {"tested_on": "Septoria tritici (ATCC 26517)", "experiment": "Minimum Inhibitory Concentration (MIC) (Septoria tritici), CLSI-based microdilution", "format": "cell-based", "settings": "Zymoseptoria tritici, ATCC26517, 168 h, S. tritici ATCC 26517; seven days at 22° C. in the dark; MIC = 50% reduction in growth, visual; read-out: Septoria MIC Rating", "experimental": "as §2, §3, §4, §5", "units": {"MIC": "µg/mL"}, "values": [{"smiles": "OC(Cn1cnnn1)(c1ccc(F)cc1F)C(F)(F)c1ccc(-c2ccc(CC(F)(F)F)cc2)cn1", "note": "(stereo not shown) [Example 41, 2-(2,4-Difluorophenyl)-1,1-difluoro-3-(1H-tetrazol-1-yl)-1-(5-(4-(2,2,2-trifluoroethyl)phenyl)pyridin-2-yl)propan-2-ol]", "MIC": "< 0.5"}, {"smiles": "CNC(=O)c1ccc(-c2ccc(C(F)(F)C(O)(Cn3cnnn3)c3ccc(F)cc3F)nc2)cc1", "note": "(stereo not shown) [Example 42, 4-(6-(2-(2,4-Difluorophenyl)-1,1-difluoro-2-hydroxy-3-(1H-tetrazol-1-yl)propyl)pyridin-3-yl)-N-methylbenzamide]", "MIC": "> 4"}, {"smiles": "OC(Cn1cnnn1)(c1ccc(F)cc1F)C(F)(F)c1ccc(-c2ccc(OCCC(F)(F)F)cc2)cn1", "note": "(stereo not shown) [Example 44, 2-(2,4-Difluorophenyl)-1,1-difluoro-3-(1H-tetrazol-1-yl)-1-(5-(4-(3,3,3-trifluoropropoxy)phenyl)pyridin-2-yl)propan-2-ol]", "MIC": "0.5 to 1.5"}, {"smiles": "OC(Cn1cnnn1)(c1ccc(F)cc1F)C(F)(F)c1ccc(-c2ccc(SCC(F)(F)F)cc2)cn1", "note": "(stereo not shown) [Example 45, 2-(2,4-Difluorophenyl)-1,1-difluoro-3-(1H-tetrazol-1-yl)-1-(5-(4-((2,2,2-trifluoroethyl)thio)phenyl)pyridin-2-yl)propan-2-ol]", "MIC": "< 0.5"}, {"smiles": "CC(F)(c1ccc(-c2ccc(OC(F)(F)F)cc2)cn1)C(O)(Cn1cnnn1)c1ccc(F)cc1F", "note": "(stereo not shown) [Example 46, 2-(2,4-Difluorophenyl)-3-fluoro-1-(1H-tetrazol-1-yl)-3-(5-(4-(trifluoromethoxy)phenyl)-pyridin-2-yl)butan-2-ol]", "MIC": "< 0.5"}, {"smiles": "CC(F)(c1ccc(-c2ccc(C(F)(F)F)cc2)cn1)C(O)(Cn1cnnn1)c1ccc(F)cc1F", "note": "(stereo not shown) [Example 53, 2-(2,4-Difluorophenyl)-3-fluoro-1-(1H-tetrazol-1-yl)-3-(5-(4-(trifluoromethyl)phenyl)pyridin-2-yl)butan-2-ol]", "MIC": "1.5 to 4"}, {"smiles": "CC(F)(c1ccc(-c2ccc(Cl)cc2)cn1)C(O)(Cn1cnnn1)c1ccc(F)cc1F", "note": "(stereo not shown) [Example 55, 3-(5-(4-Chlorophenyl)pyridin-2-yl)-2-(2,4-difluorophenyl)-3-fluoro-1-(1H-tetrazol-1-yl)butan-2-ol]", "MIC": "1.5 to 4"}, {"smiles": "CC(F)(c1ccc(-c2ccc(OCC(F)(F)F)cc2)cn1)C(O)(Cn1cnnn1)c1ccc(F)cc1F", "note": "(stereo not shown) [Example 57, 2-(2,4-Difluorophenyl)-3-fluoro-1-(1H-tetrazol-1-yl)-3-(5-(4-(2,2,2-trifluoroethoxy)phenyl)pyridin-2-yl)butan-2-ol]", "MIC": "1.5 to 4"}]}]}
